Test results reported in patent publication US20260014129A1, “MITOCHONDRIAL PYRUVATE METABOLISM INHIBITORS FOR TREATING CHRONIC MYELOID LEUKEMIA” (The University Court of the University of Glasgow, priority 2022, published 2026).

Assays:
phospho-CRKL = experiment: Western blot of phospho-CRKL in CML patient samples; format: cell-based, human; details: imatinib, two patient samples
Method: (§1) Cells were lysed in RIPA buffer containing mini-Complete protease inhibitor cocktail and phosphatase inhibitors (both Roche). Total protein concentration was quantified using a Pierce BCA kit (Thermo Fisher Scientific: 23227). Equal amounts of protein (5-7.5 μg) were heated at 95° C. for 5 min and separated (120V) in 4-12% gels (Novex) for SDS-PAGE. Proteins were transferred onto PDVF membranes (Thermo Fisher Scientific: 21882) then blocked in 2% BSA (in Tris-buffered saline, 0.01% Tween (TBS-T)) for one hour. Next, membranes were incubated overnight at 4° C. with the primary antibodies. The membranes were rinsed three times with TBS-T, then incubated with secondary HRP-linked antibodies (1:10,000) for 1 hour at room temperature. The SuperSignal West Femto Maxi detection system was used (Thermo Fisher Scientific: 34095) and imaging was carried out using a LI-COR Odyssey Fc gel-doc system.

CML CD34+ cells [1] = experiment: RNA-seq differential gene expression and GSEA of imatinib-treated CML CD34+ cells; format: cell-based, human; details: imatinib 2 μM, 48 hours
Method: RNA was extracted from 200,000 CML CD34+ cells using an RNA easy mini kit (Qiagen) according to the manufacturer's instructions.
Libraries were prepared using the Illumina TruSeq Stranded mRNA LT Kit (Illumina) and run on the Illumina Next Seq 500 using the High Output 75 cycles kit (2×36 cycles, paired end reads, single index; Illumina). FastQ files were generated using Illumina's bcl2fastq (v. 2.20.0.422).
QC, alignment, and parsing of files into count matrices was performed in command line, with subsequent differential gene expression (DGE) analysis performed in R (1.2.1335). Adapter trimming was performed using Scythe (version 0.981), and Sickle (version 0.940), was used to trim bases with quality scores of less than 20. Prior to and after this pre-processing fastqc (version 0.11.2) was run to ascertain sequence quality, alongside the efficacy of the pre-processing steps. Trimmed reads were indexed and aligned using Hisat2 (version 2.1.0). Hisat2 indexes (GRCh38 genome_tran) were obtained from the John Hopkins Center for Computational Biology, 2020. Samtools (version 0.1.19044428cd) view was used to convert the resulting .sam to .bam files, whilst samtools sort was used to sort the .bam files. Assembly was achieved through the use of stringtie (John Hopkins Center for Computational Biology, 2020), with output .gtf files converted to count matrices using the python script prepDE.py (stringtie version 1.3.3b.Linux_x86_64). Reads were assembled using an annotated reference human genome (GRCh38.p13), obtained from GENCODE (GENECODE, 2020). DESeq2 (version 1.26.0) was used to generate results sets from the gene and transcript count matrices. G genes with read counts too low to allow for the calculation of p and adjusted p-values (padj: Benjamini-Hochberg) were removed from the data sets leaving gene and transcript counts of sizes 16,069 and 45,218 respectively.
GSEA (version 4.1) was conducted on pre-ranked lists (ranked by pi score calculated by multiplying LOG fold change by −LOG (corrected p-value)).

phospho-AMPK = experiment: Western blot of AMPK and phospho-AMPK in CD34+ CML cells; format: cell-based, human; details: imatinib-treated patient samples, 24 hours
Method: as §1

CML CD34+ cells [2] = experiment: Proliferation (cell doubling time) and apoptosis (Annexin V/7-AAD) of primary CML CD34+ cells; details: imatinib 2 μM
MPC = target: T1, MPC (Homo sapiens, UniProt O95563+Q9Y5U8); details: variety of cell types (ref 27); cited from earlier work
T1 sequence (Q9Y5U8 1-109): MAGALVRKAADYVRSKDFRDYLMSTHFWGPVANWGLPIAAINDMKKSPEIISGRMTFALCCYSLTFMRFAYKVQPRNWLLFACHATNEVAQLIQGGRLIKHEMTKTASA
T1 sequence (O95563 1-127): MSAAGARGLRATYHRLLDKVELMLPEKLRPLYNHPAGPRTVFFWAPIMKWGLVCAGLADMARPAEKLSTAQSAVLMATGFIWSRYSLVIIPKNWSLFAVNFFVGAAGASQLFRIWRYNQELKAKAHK

CML CD34+ cells [3] = experiment: Patient-derived xenograft of CML CD34+ cells in NRG-W41 mice, bone marrow flow cytometry; format: in vivo, human
Method: Treatment was given for 4 weeks. For treatment with asciminib (ABL001) plus MSDC-0160, twelve weeks following transplant, drug treatment was started with both asciminib (Fisher Scientific Cat #1642956) dosed at 10 mg/kg/day (5 mg/kg BID); oral gavage and MSDC-0160 (Apex Biotechnology: Cat #B3702) dosed at 30 mg/kg; oral gavage once daily. Treatment was given for 4 weeks. At the respective endpoints, bone marrow cells were collected. This was done by placing inverted cut leg bones into 0.5 mL Eppendorf tubes with holes at bottom. These in turn were placed within 1.5 mL Eppendorf tubes containing PBS, centrifuged (12,000 RCF, 20 seconds). Cells were stained (300 μl/test) with anti-mouse (APC-Cy7 BD Biosciences: Cat #557659, RRID: AB_396774, 1 μl), anti-human CD45 (FITC; BD Biosciences: Cat #555482, RRID: AB_395874, 10 μl), anti-human CD34 (APC; BD Biosciences: Cat #555824, RRID: AB_398614, 2 μl) and anti-human CD38 (PerCP; BioLegend: Cat #303520, RRID: AB_893313, 2 μl) antibodies for flow cytometry analysis as described above.

K562 CML cell line = experiment: 13C6 glucose tracing in K562 CML cell line; format: cell-based, human; details: K562, several concentrations
Method: For conjugation of palmitate, a 20 mM stock was made in 100% EtOH. This was incubated on a shaking heater, 60° C. until the solution clarified. The palmitate was then added to 10% BSA (ultra-fatty acid free in EBSS, Roche, 03117057001) to give a palmitate:BSA ratio of 1:3 BSA. This solution was left for 15 min in water bath (37° C.), and then added to final concentration in complete medium. For cell line experiments, the medium was RPMI with 10% dialysed FBS and 1% penicillin/streptomycin. For tracing experiments 11 mM ^13C6 glucose was added to glucose-free RPMI.
Biological and technical replicates were processed through Autoplotter (56) and natural abundance was corrected for. Fraction of enrichment was calculated as m+2 and above. For CML samples treated with or without imatinib, multiple paired T-tests were conducted on Log 10 transformed values in Graphpad Prism. The correction for multiple comparisons was the two-stage step-up method of Benjamini, Krieger and Yekutieli with an FDR (Q) value of 10%. For volcano plots Log 10 FC vs Log 10 (q value) are plotted with q values>5% in red and >10% in blue. For normal vs CML comparisons, the process was the same with the exception that unpaired t-tests were used. For PC activity in normal vs CML, this is denoted by fraction m+3. For imatinib vs untreated we look at relative activity to PDH. IE., the m+3/m+2 ratio and conducted multiple t-tests with correction for multiple comparisons being the two-stage step-up method of Benjamini, Krieger and Yekutieli with an FDR (Q) value of 10%. To examine contribution to carbon pool we corrected contribution of each isotopologue by the number of carbons it contributes to a given metabolite, i.e., for glutamine contribution from m+5 is greater than m+3. Note that for cell line experiments standard deviation is shown.

[4] = combination of imatinib and MSDC-0160, 4 weeks

| SMILES | phospho-CRKL protein level (phospho-CRKL) | most downregulated pathways in GSEA (CML CD34+ cells [1]; Hallmark gene sets) | PC transcript level (CML CD34+ cells [1]; paired transcriptomic data) | PDH transcript level (CML CD34+ cells [1]; paired transcriptomic data) | AMPK and phospho-AMPK protein levels (phospho-AMPK) | cell proliferation (cell doubling time) (CML CD34+ cells [2]; primary CML CD34+ cells in Plasmax, p-value=0.0659) | level of apoptosis (CML CD34+ cells [2]; primary CML CD34+ cells, p-value=0.081) | inhibition of MPC activity (MPC) | percentage of human CML LSCs, MSDC-0160 on its own (CML CD34+ cells [3]; MSDC-0160 30 mg/kg once daily, 4 weeks, 12 weeks engraftment) | percentage of human CML LSCs, combination with ABL-001 (CML CD34+ cells [3]; MSDC-0160 30 mg/kg plus ABL-001 10 mg/kg/day, 4 weeks) | total numbers of CML CD45+CD34+CD38- cells (LSC) (CML CD34+ cells [3]; combination of ABL-001 and MSDC-0160 30 mg/kg, 4 weeks) | reduction in percentage of human CD45+ leukocytes and total number of bone marrow CD45+ cells (CML CD34+ cells [3]; combination of imatinib 50 mg/kg BID and MSDC-0160 30 mg/kg/day, 4 weeks) | percentage and absolute number of human CML LSCs (CD34+CD38-) (CML CD34+ cells [3]; [4]) | relative and total reduction of CD34+ cells versus vehicle or imatinib arms (CML CD34+ cells [3]; [4]) | labelled fractions in alpha-ketoglutarate (AKG) and AKG-derived glutamate (K562 CML cell line) | glucose contribution to fraction of labelling (K562 CML cell line; data not shown) |
| --- | --- | --- | --- | --- | --- | --- | --- | --- | --- | --- | --- | --- | --- | --- | --- | --- |
| Cc1ccc(NC(=O)c2ccc(CN3CCN(C)CC3)cc2)cc1Nc1nccc(-c2cccnc2)n1 [imatinib] | decreased | oxidative phosphorylation, glycolysis, and fatty acid oxidation | no change | downregulation | variable depending on patient sample | inhibited cell proliferation | modest, sample-dependent increase in the level of apoptosis |  |  |  |  |  |  |  |  |  |
| CCc1ccc(C(=O)COc2ccc(CC3SC(=O)NC3=O)cc2)nc1 (stereo not shown) [MSDC-0160] |  |  |  |  |  |  |  | specifically inhibit MPC activity | reduction in the percentage of human CML LSCs | reduction in the percentage of human CML LSCs | did not reduce the total numbers | did not reach statistical significance | marked reduction in both the percentage and absolute number | did not reach statistical significance | reducing levels of all labelled fractions in these metabolites in a concentration-dependent manner | concentration-dependent reduction |
